Results on 21 compounds are retold here after patent publication US20050234046A1 (Kalypsys, Inc., priority 2004, published 2005).

Common to all, as to test: Transient transfection (transactivation) assay in CV-1 cells, GAL4-PPAR chimera, luciferase reporter
Format in all cases: cell-based
In general terms: In a reporter assay the amount or activity of a reporter protein is the signal.

One test concerns the target T1, PPAR gamma (Homo sapiens, UniProt P37231).
T1 construct: expressed in transfected cells; host or cells: CV-1 cells
T1 sequence (P37231 238-503 limits assumed): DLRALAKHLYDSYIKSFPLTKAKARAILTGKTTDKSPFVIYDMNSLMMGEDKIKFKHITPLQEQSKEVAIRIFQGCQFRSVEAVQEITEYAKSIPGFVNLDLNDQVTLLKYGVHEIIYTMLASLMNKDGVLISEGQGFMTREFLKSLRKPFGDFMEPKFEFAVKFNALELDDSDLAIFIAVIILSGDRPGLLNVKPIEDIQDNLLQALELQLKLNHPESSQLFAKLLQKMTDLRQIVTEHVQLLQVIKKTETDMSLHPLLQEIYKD

The next test has as its target T2, PPAR alpha (Homo sapiens, UniProt Q07869).
T2 construct: expressed in transfected cells; host or cells: CV-1 cells
T2 sequence (Q07869 239-466 limits assumed): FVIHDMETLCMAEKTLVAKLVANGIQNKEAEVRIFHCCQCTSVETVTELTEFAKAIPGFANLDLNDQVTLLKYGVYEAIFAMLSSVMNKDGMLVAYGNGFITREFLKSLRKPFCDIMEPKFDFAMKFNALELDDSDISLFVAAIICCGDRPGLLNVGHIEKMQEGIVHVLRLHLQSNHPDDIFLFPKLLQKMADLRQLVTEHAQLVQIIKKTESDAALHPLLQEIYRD
An excerpt:
Compounds may be screened for functional potency in transient transfection assays in CV-1 cells or other cell types for their ability to activate the PPAR subtypes (transactivation assay). A previously established chimeric receptor system was utilized to allow comparison of the relative transcriptional activity of the receptor subtypes on the same synthetic response element and to prevent endogenous receptor activation from complicating the interpretation of results. See, for example; Lehmann, J. M.; Moore, L. B.; Smith-Oliver, T. A; Wilkinson, W. O.; Willson, T. M.; Kliewer, S. A., An antidiabetic thiazolidinedione is a high affinity ligand for peroxisome proliferatur-activated receptor γ (PPARγ), J. Biol. Chem., 1995, 270, 12953-6. The ligand binding domains for murine and human PPAR-alpha, PPAR-gamma, and PPAR-delta are each fused to the yeast transcription factor GAL4 DNA binding domain. CV-1 cells were transiently transfected with expression vectors for the respective PPAR chimera along with a reporter construct containing four or five copies of the GAL4 DNA binding site driving expression of luciferase. After 8-16 h, the cells are replated into multi-well assay plates and the media is exchanged to phenol-red free DME medium supplemented with 5% delipidated calf serum. 4 hours after replating, cells were treated with either compounds or 1% DMSO for 20-24 hours. Luciferase activity was then assayed with Britelite (Perkin Elmer) following the manufacturer's protocol and measured with either the Perkin Elmer Viewlux or Molecular Devices Acquest Xsee, for example, Kliewer, S. A., et. al. Cell 1995, 83, 813-819). Rosiglitazone is used as a positive control in the hPPAR-γ assay. Wy-14643 and GW7647 is used as a positive control in the hPPAR-α assay. GW501516 is used as the positive control in the hPPAR-δ assay.
Compounds of Examples 1-233 were assayed to measure their biological activity with respect to their EC50 values and efficacy for modulating PPAR-alpha, PPAR-gamma, and PPAR-delta as set forth in Table 3.

For a further test, the target named is T3, PPAR delta (Homo sapiens, UniProt Q03181).
T3 construct: expressed in transfected cells; host or cells: CV-1 cells
T3 sequence (Q03181 211-439 limits assumed): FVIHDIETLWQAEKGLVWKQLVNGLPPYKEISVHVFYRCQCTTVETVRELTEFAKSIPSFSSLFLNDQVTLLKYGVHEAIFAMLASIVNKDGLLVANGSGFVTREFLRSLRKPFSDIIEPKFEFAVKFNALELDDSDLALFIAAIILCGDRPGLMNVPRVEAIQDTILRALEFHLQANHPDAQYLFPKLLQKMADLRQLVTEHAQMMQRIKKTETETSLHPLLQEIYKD

A value given as a limit tells only on which side of the number the result lay.

`Cc1ccc(S(=O)(=O)N2[C@H](C)CN(c3ccc(C(F)(F)F)cn3)C[C@@H]2C)cc1CC(=O)O` [Example 20, {5-[2,6-Dimethyl-4-(5-trifluoromethyl-pyridin-2-yl)-piperazine-1-sulfonyl]-2-methyl-phenyl}-acetic acid]: the EC50 – broadly, the concentration needed to bring the measured effect to its halfway point – was more than 100 µM at PPAR gamma, more than 100 µM at PPAR alpha and less than 5 µM on PPAR delta.
Take `Cc1cc(CC(=O)O)cc(S(=O)(=O)N2CCN(c3ncc(C(F)(F)F)cc3Cl)CC2)c1` [Example 22, {5-Methyl-3-[4-(3-chloro-5-trifluoromethyl-pyridin-2-yl)-piperazine-1-sulfonyl]-phenyl)-acetic acid]: the EC50 on PPAR gamma is less than 5 µM; at PPAR alpha it was 5 to 100 µM; at PPAR delta, less than 5 µM.
As for `Cc1ccc(S(=O)(=O)N2CCN(c3ccc(C(F)(F)F)cn3)C(C)C2)cc1CC(=O)O` (stereo not drawn) [Example 23, [2-Methyl-5-[3-methyl-4-(5-trifluoromethyl-pyridin-2-yl)-piperazine-1-sulfonyl]-phenyl}-acetic acid], the values for the EC50 on PPAR gamma, at PPAR alpha and at PPAR delta were less than 5 µM, 5 to 100 µM and less than 5 µM, respectively.
`Cc1ccc(S(=O)(=O)N2[C@H](C)CN(c3nc4ccccc4o3)C[C@@H]2C)cc1CC(=O)O` [Example 24, [5-(4-Benzooxazol-2-yl-2,6-dimethyl-piperazine-1-sulfonyl)-2-methyl-phenyl]-acetic acid]: the EC50 at PPAR gamma was more than 100 µM; at PPAR alpha, more than 100 µM; at PPAR delta, 5 to 100 µM.
As for `Cc1ccc(S(=O)(=O)N2[C@H](C)CN(c3nc4ccccc4s3)C[C@@H]2C)cc1CC(=O)O` [Example 25, [5-(4-Benzothiazol-2-yl-2,6-dimethyl-piperazine-1-sulfonyl)-2-methyl-phenyl]-acetic acid], the EC50 at PPAR gamma was more than 100 µM; at PPAR alpha it was more than 100 µM; at PPAR delta, 5 to 100 µM.
As to `Cc1ccc(S(=O)(=O)N2CCCN(c3nc4ccccc4o3)CC2)cc1CC(=O)O` [Example 26, [5-(4-Benzooxazol-2-yl-[1,4]diazepane-1-sulfonyl)-2-methyl-phenyl]-acetic acid], the EC50 on PPAR gamma was more than 100 µM; at PPAR alpha, more than 100 µM; at PPAR delta, 5 to 100 µM.
For the compound `Cc1ccc(S(=O)(=O)N2CCCN(c3nc4ccccc4s3)CC2)cc1CC(=O)O` [Example 27, [5-(4-Benzothiazol-2-yl-[1,4]diazepane-1-sulfonyl)-2-methyl-phenyl]-acetic acid], the results for the EC50 at PPAR gamma, on PPAR alpha and at PPAR delta were 5 to 100 µM, more than 100 µM and 5 to 100 µM, respectively.
As to `Cc1ccc(S(=O)(=O)N2CCN(c3ccc(C#N)cn3)CC2)cc1CC(=O)O` [Example 28, {5-[4-(5-Cyano-pyridin-2-yl)-piperazine-1-sulfonyl]-2-methyl-phenyl}-acetic acid], the EC50 at PPAR gamma is more than 100 µM; on PPAR alpha, more than 100 µM; at PPAR delta, less than 5 µM.
With `COC(=O)[C@H]1CN(c2ccc(C(F)(F)F)cn2)CCN1S(=O)(=O)c1ccc(C)c(CC(=O)O)c1` [Example 29, (R)-1-(3-Carboxymethyl-4-methyl-benzenesulfonyl)-4-(5-trifluoromethyl-pyridin-2-yl)-piperazine-2-carboxylic acid methyl ester], the EC50 at PPAR gamma is more than 100 µM; on PPAR alpha, more than 100 µM; at PPAR delta it was less than 5 µM.
For the compound `CCc1ccc(N2CCN(S(=O)(=O)c3ccc(C)c(CC(=O)O)c3)CC2)cc1` [Example 30, {5-[4-(4-Ethyl-phenyl)-piperazine-1-sulfonyl]-2-methyl-phenyl}-acetic acid], the EC50 on PPAR gamma is 5 to 100 µM; at PPAR alpha, 5 to 100 µM; on PPAR delta it was less than 5 µM.
In the case of `Cc1ccc(S(=O)(=O)N2CCN(c3ccc(C(C)C)cc3)CC2)cc1CC(=O)O` [Example 31], the half-maximal effective concentration (EC50) at PPAR gamma is 5 to 100 µM; at PPAR alpha it was less than 5 µM; on PPAR delta, less than 5 µM.
As for `Cc1ccc(S(=O)(=O)N2CCN(c3ccc(C(C)(C)C)cc3)CC2)cc1CC(=O)O` [Example 32, {5-[4-(4-tert-Butyl-phenyl)-piperazine-1-sulfonyl]-2-methyl-phenyl}-acetic acid], the figures for the EC50 on PPAR gamma, at PPAR alpha and at PPAR delta were 5 to 100 µM, less than 5 µM and 5 to 100 µM, respectively.
Consider `Cc1ccc(S(=O)(=O)N2CCN(c3ccc(C(F)(F)F)cc3F)CC2)cc1CC(=O)O` [Example 33], for which the EC50 at PPAR gamma, at PPAR alpha and at PPAR delta was less than 5 µM each time.
For `Cc1ccc(S(=O)(=O)N2CCN(c3ccc(C(F)(F)F)c(F)c3)CC2)cc1CC(=O)O` [Example 34, {5-[4-(3-Fluoro-4-trifluoromethyl-phenyl)-piperazine-1-sulfonyl]-2-methyl-phenyl}-acetic acid], on PPAR gamma, the “PPAR gamma EC50” value was “B/C”. For the same compound, the EC50 at PPAR alpha and on PPAR delta was less than 5 µM in each case.
Consider `Cc1ccc(S(=O)(=O)N2CCN(c3cc(C(F)(F)F)ccn3)CC2)cc1CC(=O)O` [Example 35, {2-Methyl-5-[4-(4-trifluoromethyl-pyridin-2-yl)-piperazine-1-sulfonyl]-phenyl}-acetic acid], for which the EC50 on PPAR gamma is 5 to 100 µM; at PPAR alpha, 5 to 100 µM; at PPAR delta, less than 5 µM.
Consider `Cc1ccc(S(=O)(=O)N2CCN(c3cccc(C(F)(F)F)n3)CC2)cc1CC(=O)O` [Example 36, {2-Methyl-5-[4-(6-trifluoromethyl-pyridin-2-yl)-piperazine-1-sulfonyl]-phenyl}-acetic acid], for which the EC50 at PPAR gamma was less than 5 µM; on PPAR alpha, 5 to 100 µM; at PPAR delta it was less than 5 µM.
For the compound `COC(=O)[C@@H]1CN(c2ccc(C(F)(F)F)cn2)CCN1S(=O)(=O)c1ccc(C)c(CC(=O)O)c1` [Example 37, (S)-1-(3-Carboxymethyl-4-methyl-benzenesulfonyl)-4-(S-trifluoromethyl-pyridin-2-yl)-piperazine-2-carboxylic acid methyl ester], the EC50 on PPAR gamma is more than 100 µM; at PPAR alpha, more than 100 µM; on PPAR delta, less than 5 µM.
With `Cc1ccc(S(=O)(=O)N2CCN(c3ccc(C(F)(F)F)cn3)C(C)(C)C2)cc1CC(=O)O` [Example 38, {5-[3,3-Dimethyl-4-(5-trifluoromethyl-pyridin-2-yl)-piperazine-1-sulfonyl]-2-methyl-phenyl}-acetic acid], the EC50 on PPAR gamma was less than 5 µM; on PPAR alpha, more than 100 µM; on PPAR delta it was less than 5 µM.
Regarding `Cc1ccc(S(=O)(=O)N2CCN(c3ccc(C(F)(F)F)cn3)CC2(C)C)cc1CC(=O)O` [Example 39, {5-[2,2-Dimethyl-4-(5-trifluoromethyl-pyridin-2-yl)-piperazine-1-sulfonyl]-2-methyl-phenyl}-acetic acid], the EC50 was less than 5 µM at PPAR gamma, more than 100 µM on PPAR alpha and less than 5 µM at PPAR delta.
Regarding `COC[C@@H]1CN(S(=O)(=O)c2ccc(C)c(CC(=O)O)c2)CCN1c1ccc(C(F)(F)F)cn1` [Example 40], the EC50 is more than 100 µM on PPAR gamma, more than 100 µM at PPAR alpha and 5 to 100 µM on PPAR delta.
On to `COC(=O)[C@H]1CN(S(=O)(=O)c2ccc(C)c(CC(=O)O)c2)CCN1c1ccc(C(F)(F)F)cn1` [Example 41, (R)-4-(3-Carboxymethyl-4-methyl-benzenesulfonyl)- -(5-trifluoromethyl-pyridin-2-yl)-piperazine-2-carboxylic acid methyl ester], for which the EC50 was 5 to 100 µM at PPAR gamma, more than 100 µM at PPAR alpha and less than 5 µM on PPAR delta.
